{"source": "patent US20070071677A1", "about": "(priority 2003, published 2007)", "test_system": "cell lines described in Example 3 (293T, HeLa, CT26, MCF-7)", "assay": "Cytotoxicity of LMWP peptides, MTT colorimetric assay", "assay_type": "cell-based, human, murine", "settings": "FIG. 5; TAT at 5.0 mM and 10.0 mM", "description": "Cytotoxicity of the LMWP peptides and TDSP5-gelonin conjugates were examined using the cell lines described in Example 3. In brief, cells grown to 75% confluency were incubated with various concentrations of LMWP peptides, TAT peptide, TDSP5-gelonin conjugate, or TAT-gelonin conjugates. Cell proliferation was measured over 3 days, and cytotoxicity was determined using a colorimetric assay, which was performed by removing the cell culture medium and replacing it with PBS containing 5 mg/ml of 3-(4,5-dimethylthiazol-2-yl)-2,5-diphenyltetrazolium bromide (MTT). The absorbance of the cell culture medium following MTT addition was measured at 540 nm, and the survival ratio was determined by the ratio of the absorbance of sample-treated cells to that of control cells.", "note": "Ends that are not written are not given here."}
{"substance": "PRRRRSSRRP [TDSP3]", "values": [{"measurement": "cell cytotoxicity (in words)", "result": "little or no toxicity"}]}
{"substance": "PRRRRR [TDSP2]", "values": [{"measurement": "cell cytotoxicity (in words)", "result": "little or no toxicity"}]}
{"substance": "ASRRRRRGGRRRR [TDSP4]", "values": [{"measurement": "cell cytotoxicity (in words)", "result": "little or no toxicity"}]}
{"substance": "VSRRRRRRGGRRRR [TDSP5]", "values": [{"measurement": "cell cytotoxicity (in words)", "result": "little or no toxicity"}]}
